{"source": "patent US20230033021A1", "about": "“TREATMENT OF A DISEASE OF THE GASTROINTESTINAL TRACT WITH AN INTEGRIN INHIBITOR” (Progenity, Inc., priority 2018, published 2023)", "key": {"IL-6": {"system": "IL-6", "conditions": "low dose PO group (15 mg/kg), by 12 h post-dose"}, "[1]": {"experiment": "Pharmacokinetic study of oral vs intra-cecal administration of tacrolimus: blood, rectal content, GI tissue and luminal content (Example 13)", "design": "species or system Yorkshire-Cross farm swine", "conditions": "female, Yorkshire-Cross, swine, in vivo, 0.09 mg/kg", "text": "No further randomization procedure was employed."}, "GM-CSF": {"system": "GM-CSF", "experiment": "GM-CSF in plasma and colon tissue by ELISA, DSS-induced colitis mouse model", "type": "in vivo, mice", "conditions": "between IC and PO treatment groups, plasma or colon tissue (data not shown)"}}, "data": [{"smiles": "C[C@@H]1CCN(C(=O)CC#N)C[C@@H]1N(C)c1ncnc2[nH]ccc12.O=C(O)CC(O)(CC(=O)O)C(=O)O", "note": "[tofacitinib citrate]", "values": [{"measurement": "IL-6 expression in colon tissue", "setting": "IL-6", "result": "Recovery from IL-6 inhibition"}]}, {"smiles": "C=CC[C@@H]1/C=C(\\C)C[C@H](C)C[C@H](OC)[C@H]2O[C@@](O)(C(=O)C(=O)N3CCCC[C@H]3C(=O)O[C@H](/C(C)=C/[C@@H]3CC[C@@H](O)[C@H](OC)C3)[C@H](C)[C@@H](O)CC1=O)[C@H](C)C[C@@H]2OC", "note": "[tacrolimus]", "values": [{"measurement": "Tissue(mean) (ng/g)/Trough(12 hr)(ng/mL) Ratio", "setting": "[1]", "result": 0}]}, {"smiles": "C[C@@H]1CCN(C(=O)CC#N)C[C@@H]1N(C)c1ncnc2[nH]ccc12", "note": "[tofacitinib]", "values": [{"measurement": "GM-CSF levels", "setting": "GM-CSF", "result": "nor was there a significant difference"}]}]}
